Test results reported in patent publication US10934303B2, “Aryl ethene derivative and pharmaceutical composition containing same as active ingredient” (priority 2016, dated 2021).
Values belong to the molecule of their own block, whether it stands above or below them.

Assays:
[1] = 1 μM, 30 minutes, 37° C., NADPH
Protocol: 2) Microsomal Stability Evaluation
Four liver microsomes (Human, Dog, Rat, Mouse 0.5 mg/ml) with a 0.1 M phosphate buffer solution (pH 7.4), and the arylethene derivative of the present invention were added to a concentration of 1 μM, culturing was performed at 37° C. for 5 minutes in advance, a NADPH regeneration system solution was added thereto, and culturing was performed at 37° C. for 30 minutes. Thereafter, in order to complete the reaction, an acetonitrile solution containing an internal standard material (chlorpropamide) was added thereto, centrifugation (14,000 rpm, 4° C.) was performed for 5 minutes, and a supernatant was injected into a LC-MS/MS system to analyze the substrate drug, thereby evaluating metabolism stability to the arylethene derivative of the present invention.

ERRγ = type: cell-based; settings: for Functional Assay at 10 μM (% of control), Cpds: 24 hours, AD293; for Functional Assay, Cpds/Ref 5182: activity relative to reference compound GSK5182, 10 μM
Protocol: AD293 was cultured in a 24-well plate for 24 hours, using a DMEM High glucose culture medium (Hyclone, USA) to which 0.5% FBS was added at a concentration of 9×10^4/well. The culture medium was replaced with a DMEM High glucose culture medium to which 10% FBS was added, treatment was performed with a mixture of a TransIT-LT1 transfection reagent (Mirus, USA) and pCMX-Gal4-ERRγ, pFR-luciferase reporter plasmid, pCMV-β-gal, and culturing was performed for 24 hours. Thereafter, a luciferase activity assay and a β-gal assay were performed, respectively, with a lysate obtained after treatment with the arylethene derivative of the present invention for 24 hours. All results were derived from three or more independent repetitive experiments.

[2] = 1 μM, 30 minutes, 37° C., NADPH; remark: listed apart in the source
in vitro = in vitro ADME; parameters: Papp at 5 h: dose or concentration left out as unconfirmed; settings: PBS pH 7.4, 25° C.
Protocol: 3) Parallel Artificial Membrane Permeability Assay (PAMPA) Evaluation
PAMPA is a method which has been developed for testing cell membrane permeability of a material in a test tube, and has been performed using a lipid tri-layer PVDF membrane available from Corning Gentest (NY, US), the used reagents were all purchased from Sigma (MO, US). First, a test material is diluted in PBS (pH 7.4) to a final concentration of 10 mM, 300 mL of the solution is added to the bottom well of a 96-transwell equipped with a PVDF membrane, and 200 mL of PBS is added to the upper well. Then, a plate is reacted at 25° C. for 5 hours, 20 mL of the solution in each well is transferred to a new container, and 80 mL of acetonitrile containing an internal standard material (4 mM chloropropamide) is added thereto. A concentration of the material in the solution is analyzed using LC-MS/MS (ThermoFisher Scientific, MO, US), and the transmittance of the material is calculated according to the equation reported in the reference document.

in vivo = type: in vivo; settings: rat, IV, 1 mg/kg

SMILES: OCCC/C(=C(\c1ccc(O)cc1)c1ccc(N2CCNCC2)cc1)c1ccccc1 [Compound 20c]
- MS(Microsomal Stability) (%) rat [1]: 53.7%
- Functional Assay at 10 μM (% of control), Cpds (ERRγ): 2.72 % of control
- Functional Assay, Cpds/Ref 5182 (ERRγ): 0.93
- MS(Microsomal Stability) (%) human [2]: 55.8%

SMILES: CN1C[C@@H]1CCCOc1ccc(/C(=C(/CCCO)c2ccccc2)c2ccc(Br)cc2)cc1 (some centres unmarked) [Compound 13c]
- Functional Assay at 10 μM (% of control), Cpds (ERRγ): 10.58 % of control
- Functional Assay, Cpds/Ref 5182 (ERRγ): 3.36

SMILES: O=C(CN1CCCCC1)Nc1ccc(/C(=C(/CCCO)c2ccccc2)c2ccc(O)cc2)cc1 [Compound 44, (E)-N-(4-(5-hydroxy-1-(4-hydroxyphenyl)-2-phenylpent-1-en-1-yl)phenyl)-2-(piperidin-1-yl)acetamide]
- Functional Assay at 10 μM (% of control), Cpds (ERRγ): 12.94 % of control
- Functional Assay, Cpds/Ref 5182 (ERRγ): 3.16

SMILES: OCCC/C(=C(\c1ccc(Br)cc1)c1ccc(C2CNC2)cc1)c1ccccc1 [Compound 20f]
- MS(Microsomal Stability) (%) rat [1]: 99.5%
- Permeability Pampa (in vitro; 5 hours): 0.14 10^−6 cm/s
- MS(Microsomal Stability) (%) human [2]: 83.9%

SMILES: OCCC/C(=C(\c1ccc(O)cc1)c1ccc(NCCN2CCCCC2)cc1)c1ccccc1 [Compound 45, (E)-4-(5-hydroxy-2-phenyl-1-(4-((2-(piperidin-1-yl)ethyl)amino)phenyl)pent-1-en-1-yl)phenol]
- Functional Assay at 10 μM (% of control), Cpds (ERRγ): 1.58 % of control
- Functional Assay, Cpds/Ref 5182 (ERRγ): 1.55

- MS(Microsomal Stability) (%) rat [1]: 45.2%
- MS(Microsomal Stability) (%) human [2]: 128.0%
SMILES: OCCC/C(=C(\c1ccc(O)cc1)c1ccc(OCCN2CCOCC2)cc1)c1ccccc1 [Compound 6c]
- Functional Assay at 10 μM (% of control), Cpds (ERRγ): 4.64 % of control
- Functional Assay, Cpds/Ref 5182 (ERRγ): 1.51

SMILES: C[Si](C)(CN1C[C@H]2CNC[C@H]2C1)c1ccc(/C(=C(/CCCO)c2ccccc2)c2ccc(O)cc2)cc1 [Compound 42e]
- Functional Assay at 10 μM (% of control), Cpds (ERRγ): 26.04 % of control
- Functional Assay, Cpds/Ref 5182 (ERRγ): 6.37

SMILES: CN1CCN(c2ccc(/C(=C(/CCCOC(=O)C(C)(C)C)c3ccccc3)c3ccc(OC(=O)C(C)(C)C)cc3)cc2)CC1 [Compound 28g]
- Functional Assay at 10 μM (% of control), Cpds (ERRγ): 5.1 % of control
- Functional Assay, Cpds/Ref 5182 (ERRγ): 1.25

SMILES: OCCC/C(=C(\c1ccc(O)cc1)c1ccc(N2CCOCC2)cc1)c1ccccc1 [Compound 18o]
- Functional Assay at 10 μM (% of control), Cpds (ERRγ): 23.2 % of control
- Functional Assay, Cpds/Ref 5182 (ERRγ): 2.33

SMILES: CC(C)(C)OC(=O)N1CCN(c2ccc(/C(=C(/CCCO)c3ccccc3)c3ccc(O)cc3)cc2)CC1 [Compound 18m]
- Functional Assay at 10 μM (% of control), Cpds (ERRγ): 2.97 % of control
- Functional Assay, Cpds/Ref 5182 (ERRγ): 1.01

SMILES: CN(C)CCn1cc(-c2ccc(/C(=C(/CCCO)c3ccccc3)c3ccc(O)cc3)cc2)nn1 [Compound 18u]
- Functional Assay at 10 μM (% of control), Cpds (ERRγ): 5.33 % of control
- Functional Assay, Cpds/Ref 5182 (ERRγ): 5.61

SMILES: CC(C)N1CCN(c2ccc(/C(=C(/CCCO)c3ccccc3)c3ccc(OS(C)(=O)=O)cc3)cc2)CC1 [Compound 28a, (E)-4-(5-hydroxy-1-(4-(4-isopropylpiperazin-1-yl)phenyl)-2-phenylpent-1-en-1-yl)phenyl methanesulfonate]
- Functional Assay at 10 μM (% of control), Cpds (ERRγ): 1.14 % of control
- Functional Assay, Cpds/Ref 5182 (ERRγ): 1.20

SMILES: CN1CCN(CCOc2ccc(/C(=C(/CCCO)c3ccccc3)c3ccc(O)cc3)cc2)CC1 [Compound 6b]
- Functional Assay at 10 μM (% of control), Cpds (ERRγ): 7.97 % of control
- Functional Assay, Cpds/Ref 5182 (ERRγ): 2.59

SMILES: C[C@@]12CNC[C@]1(C)CN(CC(=O)Nc1ccc(/C(=C(/CCCO)c3ccccc3)c3ccc(O)cc3)cc1)C2 [Compound 46, 2-((3aR,6aS)-3a,6a-dimethylhexahydropyrrolo[3,4-c]pyrrol-2(1H)-yl)-N-(4-((E)-5-hydroxy-1-(4-hydroxyphenyl)-2-phenylpent-1-en-1-yl)phenyl)acetamide]
- Functional Assay at 10 μM (% of control), Cpds (ERRγ): 78.46 % of control
- Functional Assay, Cpds/Ref 5182 (ERRγ): 24.91

SMILES: CN1CCN(Cc2ccc(/C(=C(/CCCO)c3ccccc3)c3ccc(O)cc3)cc2)CC1 [Compound 30a, (E)-4-(5-hydroxy-1-(4-((4-methylpiperazin-1-yl)methyl)phenyl)-2-phenylpent-1-en-1-yl)phenol]
- Functional Assay at 10 μM (% of control), Cpds (ERRγ): 2.94 % of control
- Functional Assay, Cpds/Ref 5182 (ERRγ): 3.09

SMILES: CN1CCN(C[Si](C)(C)c2ccc(/C(=C(/CCCO)c3ccccc3)c3ccc(O)cc3)cc2)CC1 [Compound 42a, (Z)-4-(1-(4-(dimethyl((4-methylpiperazin-1-yl)methyl)silyl)phenyl)-5-hydroxy-2-phenylpent-1-en-1-yl)phenol]
- Functional Assay at 10 μM (% of control), Cpds (ERRγ): 4.37 % of control
- Functional Assay, Cpds/Ref 5182 (ERRγ): 1.49

SMILES: CC(C)N1CCN(c2ccc(/C(=C(/CCCO)c3ccccc3)c3ccc(OS(=O)(=O)C(F)(F)F)cc3)cc2)CC1 [Compound 28d]
- Functional Assay at 10 μM (% of control), Cpds (ERRγ): 1.69 % of control
- Functional Assay, Cpds/Ref 5182 (ERRγ): 1.78

SMILES: C[Si](C)(CN1CCCCC1)c1ccc(/C(=C(/CCCO)c2ccccc2)c2ccc(O)cc2)cc1 [Compound 42b]
- Papp at 5 h (in vitro; PAMPA, read-out: Permeability Pampa): 0.1 ×10⁻⁶ cm/s
- Functional Assay at 10 μM (% of control), Cpds (ERRγ): 11.6 % of control
- Functional Assay, Cpds/Ref 5182 (ERRγ): 1.16

SMILES: CN1CCN(c2ccc(/C(=C(/CCCO)c3ccccc3)c3ccc(OC(=O)C(C)(C)C)cc3)cc2)CC1 [Compound 28e]
- MS(Microsomal Stability) (%) rat [1]: 59.6%
- Functional Assay at 10 μM (% of control), Cpds (ERRγ): 4.76 % of control
- Functional Assay, Cpds/Ref 5182 (ERRγ): 1.16
- MS(Microsomal Stability) (%) human [2]: 56.4%

SMILES: C[Si](C)(CC1CCNCC1)c1ccc(/C(=C(/CCCO)c2ccccc2)c2ccc(O)cc2)cc1 [Compound 42d]
- Functional Assay at 10 μM (% of control), Cpds (ERRγ): 11.7 % of control
- Functional Assay, Cpds/Ref 5182 (ERRγ): 3.99

SMILES: CN1CCN(c2ccc(/C(=C(/CCCOC(=O)C(C)(C)C)c3ccccc3)c3ccc(O)cc3)cc2)CC1 [Compound 28f]
- Functional Assay at 10 μM (% of control), Cpds (ERRγ): 4 % of control
- Functional Assay, Cpds/Ref 5182 (ERRγ): 0.98

SMILES: C[Si](C)(CN1CCCC1)c1ccc(/C(=C(/CCCO)c2ccccc2)c2ccc(O)cc2)cc1 [Compound 42c]
- Functional Assay at 10 μM (% of control), Cpds (ERRγ): 2.6 % of control
- Functional Assay, Cpds/Ref 5182 (ERRγ): 0.89

SMILES: OCCC/C(=C(\c1ccc(O)cc1)c1ccc(C2CNC2)cc1)c1ccccc1 [Compound 20e]
- MS(Microsomal Stability) (%) rat [1]: 82.1%
- AUCINF (in vivo): 0.34 μMh
- AUCall (in vivo): 0.28 μMh
- Vss (in vivo): 52.8 L/kg
- t1/2 (in vivo): 4.4 h
- MS(Microsomal Stability) (%) human [2]: 78.1%

- MS(Microsomal Stability) (%) rat [1]: 72.0%
- MS(Microsomal Stability) (%) human [2]: 64.7%
SMILES: OCCC/C(=C(\c1ccc(O)cc1)c1ccc(OCCN2C[C@H]3CNC[C@H]3C2)cc1)c1ccccc1 [Compound 40, 4-((Z)-1-(4-(2-((3 aR,6aS)-hexahydropyrrolo[3,4-c]pyrrol-2(1H)-yl)ethoxy)phenyl)-5-hydroxy-2-phenylpent-1-en-1-yl)phenol]
- Functional Assay at 10 μM (% of control), Cpds (ERRγ): 2.8 % of control
- Functional Assay, Cpds/Ref 5182 (ERRγ): 0.96
